System: Halo-PCNA U2OS cells
Assay: Cell cycle block, phases assigned by PCNA-based machine learning model
Conditions: 2 mM Thymidine (S-phase block) or RO-3306 (G2-M block) per FIG. 20B legend
Procedure: Time-lapse microscopy was conducted on Halo-PCNA labeled with 50 nM JFX650, to achieve near-saturating labeling, for 12 hours at 12 frames per hour (FIG. 21A). A machine learning model was then trained using both manually assigned cell stages and time-based progression resulting in both a G1, early S, mid S, late S, G2 and mitosis classifier as well as a regression prediction across the continuum of the cell cycle (FIG. 21B). The predicted cell cycle classification performed well as compared to manual annotation (FIG. 21C). Clear progression of individual cells through the cell cycle was observed when regression prediction was plotted across the time series (FIG. 21D). […] When cells in each cell phase were analyzed separately, it became apparent that the slow-moving population of PCNA was exclusively found in cell predicted to be in S-phase and that there was a marked decrease in the fast-moving population (FIG. 20E). Mean diffusion coefficient of PCNA was then measured for 4,081 individual cells to characterize heterogeneity across the cell population, which is described in large part by cell cycle (FIG. 20F).
Cell cycle as provided above can be automatically determined using an image (e.g., an image of JF549-labeled PCNA). […]

SMILES	fraction of cells assigned to the respective cell phase
O=C1NC(=NCc2cccs2)S/C1=C\c1ccc2ncccc2c1 [RO-3306]	expected enrichment
Cc1cn([C@H]2C[C@H](O)[C@@H](CO)O2)c(=O)[nH]c1=O [thymidine]	expected enrichment

Reference: patent US20260160663A1, “OBLIQUE LINE SCANNER SYSTEMS AND METHODS FOR HIGH THROUGHPUT SINGLE MOLECULE TRACKING IN LIVING CELLS” (EIKON THERAPEUTICS, INC., priority 2022, published 2026)
